Laboratory results from ChEMBL document CHEMBL1201862, “PubChem BioAssay data set” (2004).
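Assay format: 96-well plates, 48-hour exposure. Abbreviation: GI50, concentration required for 50% inhibition of growth.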 The source made the active and inactive calls. Rule as the data show it: active = GI50 up to about 1.1 µM and inactive = higher.

Experiments:
Assay in all cases: growth of human tumour cells (NCI), 48 h
[1] = system: HOP-62
[2] = system: CCRF-CEM
[3] = system: M19-MEL
[4] = system: COLO 205
[5] = system: UACC-62
[6] = system: SNB-75
[7] = system: Malme-3M
[8] = system: A498
[9] = system: K562
[10] = system: OVCAR-3
[11] = system: NCI-H23
[12] = system: CAKI-1
[13] = system: NCI-H226
[14] = system: OVCAR-4
[15] = system: HCT-15
[16] = system: NCI/ADR-RES
[17] = system: SN12C
[18] = system: T47D
[19] = system: BT-549
[20] = system: MDA-MB-231

| Structure (SMILES) | GI50 [1] | GI50 [2] | GI50 [3] | GI50 [4] | GI50 [5] | GI50 [6] | GI50 [7] | GI50 [8] | GI50 [9] | GI50 [10] | GI50 [11] | GI50 [12] | GI50 [13] | GI50 [14] | GI50 [15] [µM] | GI50 [16] | GI50 [17] | GI50 [18] | GI50 [19] | GI50 [20] |
| --- | --- | --- | --- | --- | --- | --- | --- | --- | --- | --- | --- | --- | --- | --- | --- | --- | --- | --- | --- | --- |
| C/C(CC(=O)Nc1ccc(Cl)cc1)=N\NC(N)=S | 67.9 µM (inactive) | 30 µM (inactive) | 66.5 µM (inactive) | 23.3 µM (inactive) | 4.95 µM (inactive) | > 100 µM (inactive) | > 100 µM (inactive) | > 100 µM (inactive) | 5.43 µM (inactive) | > 100 µM (inactive) | > 100 µM (inactive) | – | – | – | – | – | – | – | – | – |
| CC(=O)Oc1ccc2c(=O)c(C(C)=O)coc2c1 | > 100 µM (inactive) | > 100 µM (inactive) | > 100 µM (inactive) | > 100 µM (inactive) | – | – | – | 58.1 µM (inactive) | > 100 µM (inactive) | > 100 µM (inactive) | > 100 µM (inactive) | > 100 µM (inactive) | 83.9 µM (inactive) | > 100 µM (inactive) | > 100 | – | – | – | – | – |
| CC(=O)N1N=C(c2ccc3ccccc3c2O)CC1c1ccc(Cl)cc1Cl (stereo not drawn) | 31.9 µM (inactive) | 3.91 µM (inactive) | – | 28.3 µM (inactive) | > 100 µM (inactive) | > 100 µM (inactive) | > 100 µM (inactive) | 27.9 µM (inactive) | 7.69 µM (inactive) | 15.6 µM (inactive) | > 100 µM (inactive) | 22.6 µM (inactive) | 44.6 µM (inactive) | 33.1 µM (inactive) | 56.9 | 57.7 µM (inactive) | 19.6 µM (inactive) | 26.9 µM (inactive) | > 100 µM (inactive) | 26.7 µM (inactive) |
| Nc1ccc(C(=O)CC2(O)C(=O)Nc3c(Cl)cc(Cl)cc32)cc1 (stereo not drawn) | > 100 µM (inactive) | 16.4 µM (inactive) | 47 µM (inactive) | > 100 µM (inactive) | – | 58.1 µM (inactive) | > 100 µM (inactive) | > 100 µM (inactive) | 40.1 µM (inactive) | > 100 µM (inactive) | 83 µM (inactive) | – | > 100 µM (inactive) | > 100 µM (inactive) | 69.7 | – | > 100 µM (inactive) | – | – | – |
| COC(=O)NC1(NC(=O)OC)NC(=O)c2ccccc2N1 | > 100 µM (inactive) | > 100 µM (inactive) | – | > 100 µM (inactive) | > 100 µM (inactive) | 36 µM (inactive) | > 100 µM (inactive) | > 100 µM (inactive) | > 100 µM (inactive) | > 100 µM (inactive) | > 100 µM (inactive) | > 100 µM (inactive) | > 100 µM (inactive) | > 100 µM (inactive) | 63.5 | > 100 µM (inactive) | > 100 µM (inactive) | > 100 µM (inactive) | > 100 µM (inactive) | > 100 µM (inactive) |
| CNC(=O)N(C)C(=O)c1ccccc1C(=O)N(C)C(=O)NC | > 10 µM (inactive) | > 10 µM (inactive) | – | > 10 µM (inactive) | > 10 µM (inactive) | > 10 µM (inactive) | > 10 µM (inactive) | > 10 µM (inactive) | > 10 µM (inactive) | > 10 µM (inactive) | > 10 µM (inactive) | > 10 µM (inactive) | > 10 µM (inactive) | > 10 µM (inactive) | > 10 | > 10 µM (inactive) | > 10 µM (inactive) | > 10 µM (inactive) | > 10 µM (inactive) | > 10 µM (inactive) |
| O=c1[nH]n2c(=O)cc[nH]c2c1-c1nnns1 | > 100 µM (inactive) | > 100 µM (inactive) | > 100 µM (inactive) | > 100 µM (inactive) | – | > 100 µM (inactive) | > 100 µM (inactive) | > 100 µM (inactive) | > 100 µM (inactive) | > 100 µM (inactive) | > 100 µM (inactive) | > 100 µM (inactive) | > 100 µM (inactive) | > 100 µM (inactive) | > 100 | – | > 100 µM (inactive) | – | – | – |
| c1ccc([P+](Cc2ccc(C[P+](c3ccccc3)(c3ccccc3)c3ccccc3)s2)(c2ccccc2)c2ccccc2)cc1 | > 100 µM (inactive) | > 100 µM (inactive) | – | > 100 µM (inactive) | > 100 µM (inactive) | > 100 µM (inactive) | > 100 µM (inactive) | > 100 µM (inactive) | > 100 µM (inactive) | > 100 µM (inactive) | > 100 µM (inactive) | > 100 µM (inactive) | > 100 µM (inactive) | > 100 µM (inactive) | > 100 | > 100 µM (inactive) | > 100 µM (inactive) | > 100 µM (inactive) | > 100 µM (inactive) | > 100 µM (inactive) |
| Cc1nn(C)c(=S)n(C)c1=O | 1.81 µM (inactive) | 1.55 µM (inactive) | 0.624 µM (active) | 4.16 µM (inactive) | 0.757 µM (active) | 0.329 µM (active) | 2.89 µM (inactive) | 3.22 µM (inactive) | 0.343 µM (active) | 4.19 µM (inactive) | 0.483 µM (active) | – | 7.53 µM (inactive) | 5.83 µM (inactive) | 3.76 | – | 0.927 µM (active) | – | – | – |
